The source of these data is article PMC5981210, “Molecular recognition of wood polyphenols by phase II detoxification enzymes of the white rot Trametes versicolor” (Scientific Reports, 2018).

For one assay, the target named is T1, TvGSTO6S (Trametes versicolor, UniProt A0A384E158).
T1 construct: produced in E. coli Rosetta2 DE3 pLysS; homodimer; serine-type omega GST
T1 sequence (A0A384E158 1-246): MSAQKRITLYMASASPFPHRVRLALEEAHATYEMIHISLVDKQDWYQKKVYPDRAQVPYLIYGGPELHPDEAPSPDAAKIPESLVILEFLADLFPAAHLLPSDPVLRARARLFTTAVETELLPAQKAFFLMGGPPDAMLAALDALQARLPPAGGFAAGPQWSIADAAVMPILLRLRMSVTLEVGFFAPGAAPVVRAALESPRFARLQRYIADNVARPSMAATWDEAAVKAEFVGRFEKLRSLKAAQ
The assay is described as follows: thermal shift assay, SYPRO Orange. As to conditions: 100 µM ligand, 10 µM protein, Tris-HCl pH 8. Format: binding. The source says:
thermal shift assay, SYPRO Orange on TvGSTO6S

In the next assay the target is T2, TvGSTO1S (Trametes versicolor, UniProt R7S9J3).
T2 construct: gene TRAVEDRAFT_75639; produced in E. coli Rosetta2 DE3 pLysS
T2 sequence (R7S9J3 1-256): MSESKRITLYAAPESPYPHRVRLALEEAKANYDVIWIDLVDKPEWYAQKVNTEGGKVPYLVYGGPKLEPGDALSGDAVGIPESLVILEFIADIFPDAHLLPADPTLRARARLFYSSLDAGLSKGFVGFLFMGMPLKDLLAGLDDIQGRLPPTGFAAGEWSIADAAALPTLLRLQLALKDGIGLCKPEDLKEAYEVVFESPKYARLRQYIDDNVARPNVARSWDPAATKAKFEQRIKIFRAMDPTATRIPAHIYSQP
The assay is described as follows: thermal shift assay, SYPRO Orange. Format: binding. As to conditions: 100 µM ligand, 10 µM protein, Tris-HCl pH 8. The source says:
thermal shift assay, SYPRO Orange on TvGSTO1S

Another assay concerns the target T3, TvGSTO2S (Trametes versicolor, UniProt A0A452CSY5).
T3 construct: gene TRAPUB_12770; produced in E. coli Rosetta2 DE3 pLysS
T3 sequence (A0A452CSY5 1-239): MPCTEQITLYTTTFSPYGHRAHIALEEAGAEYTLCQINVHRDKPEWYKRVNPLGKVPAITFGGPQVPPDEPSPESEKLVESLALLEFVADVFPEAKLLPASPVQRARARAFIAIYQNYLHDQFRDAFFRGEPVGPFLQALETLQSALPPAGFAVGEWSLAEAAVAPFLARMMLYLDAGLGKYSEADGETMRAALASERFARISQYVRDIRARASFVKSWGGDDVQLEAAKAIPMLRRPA
The assay is described as follows: thermal shift assay, SYPRO Orange. It is filed as binding. The settings on record: 100 µM ligand, 10 µM protein, Tris-HCl pH 8. The source says:
thermal shift assay, SYPRO Orange on TvGSTO2S

In a further assay the target is T4, TvGSTO5S (Trametes versicolor, UniProt R7S6M8).
T4 construct: gene TRAVEDRAFT_54358; produced in E. coli Rosetta2 DE3 pLysS
T4 sequence (R7S6M8 1-241): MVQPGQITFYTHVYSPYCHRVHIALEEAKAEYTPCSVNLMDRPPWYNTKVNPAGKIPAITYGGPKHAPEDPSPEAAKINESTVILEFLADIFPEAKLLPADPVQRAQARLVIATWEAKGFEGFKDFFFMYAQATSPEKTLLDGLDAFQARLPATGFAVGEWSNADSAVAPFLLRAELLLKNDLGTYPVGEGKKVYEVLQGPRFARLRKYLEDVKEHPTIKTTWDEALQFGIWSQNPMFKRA
Nature of the assay: thermal shift assay, SYPRO Orange. Format: binding. The settings on record: 100 µM ligand, 10 µM protein, Tris-HCl pH 8. The source says:
thermal shift assay, SYPRO Orange on TvGSTO5S

The target in the next assay is T5, TvGSTO3S (Trametes versicolor, UniProt A0A384E145).
T5 construct: produced in E. coli Rosetta2 DE3 pLysS; homodimer; serine-type omega GST
T5 sequence (A0A384E145 1-240): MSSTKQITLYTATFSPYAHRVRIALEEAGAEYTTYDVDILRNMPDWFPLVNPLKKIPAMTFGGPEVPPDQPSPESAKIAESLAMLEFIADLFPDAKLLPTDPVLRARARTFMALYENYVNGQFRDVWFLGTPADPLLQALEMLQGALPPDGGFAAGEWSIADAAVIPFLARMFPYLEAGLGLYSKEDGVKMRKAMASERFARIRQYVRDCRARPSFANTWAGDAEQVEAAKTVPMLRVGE
The assay is described as follows: inhibition of GSH-transferase activity, mixed model fit. Format: biochemical. As to conditions: PEITC 25–300 µM as substrate, 1 mM GSH, 100 mM phosphate pH 6.4, 25 °C.

The target in assay [1] is Trametes versicolor glutathione transferase Omega 3S (TvGSTO3S) (Trametes versicolor). The assay is described as follows: crystal structure; TvGSTO3S (13 mg/mL) crystallised by microbatch under oil at 278 K; 30% (w/v) PEG 400, 0.2 M calcium acetate, 0.1 M acetate buffer pH 4.5; apo and ligand complexes; homodimer in the crystal.
In assay [2] the target is Trametes versicolor glutathione transferase Omega 6S (TvGSTO6S) (Trametes versicolor). The assay is described as follows: crystal structure; TvGSTO6S (26 mg/mL) crystallised by hanging drop with seeding; 25% (w/v) PEG 1500, 0.1 M MMT buffer pH 6.5; apo and naringenin complex ('dry soaking'); homodimer in the crystal.

Regarding `O=C(c1ccc(O)cc1O)c1ccc(O)cc1O` [2,2′,4,4′-Tetrahydroxy benzophenone], the TvGSTO6S at TvGSTO6S is 3.40 °C. Besides, the TvGSTO1S at TvGSTO1S was determined as 3.74 °C.

`O=C(c1ccccc1)c1ccc(O)c(O)c1O` [2,3,4-Trihydroxy benzophenone]: on TvGSTO6S, the TvGSTO6S worked out at 4.15 °C. Further, the TvGSTO2S on TvGSTO2S was 2.92 °C. Further, on TvGSTO5S, the TvGSTO5S is -12.89 °C.

Take `O=C(c1ccc(O)cc1)c1ccc(O)cc1O` [2,4,4′-Trihydroxy benzophenone]: the TvGSTO1S on TvGSTO1S was 2.74 °C.

Turning to `O=C(c1ccccc1)c1ccc(O)cc1O` [2,4-Dihydroxy benzophenone], the TvGSTO2S on TvGSTO2S turned out to be 2.56 °C.

In general, Ki refers to the dissociation constant of the complex between target and ligand, obtained from inhibition or displacement. Low readings indicate higher affinity, high ones lower affinity. `COc1c(O)cc(O)c2c(=O)cc(-c3ccccc3)oc12` [wogonin] registered a Ki on TvGSTO3S of 2890 ± 1240 nM.

By stoichiometry N is commonly meant the number of molecules, sites or subunits per partner or assembly. In the case of “Trametes versicolor glutathione transferase Omega 3S (TvGSTO3S) (enzyme)”, the stoichiometry N in assay [1] is 2.

Molecule “Trametes versicolor glutathione transferase Omega 6S (TvGSTO6S) (enzyme)” displayed a stoichiometry N in assay [2] of 2.
